{"source": "patent US7598244B2", "about": "“[1,2,4]triazolo[1,5,a]pyrimidin-2-ylurea derivative and use thereof” (Nippon Kayaku Kabushiki Kaisha, priority 2003, dated 2009)", "format_in_all_cases": "cell-based", "key": {"[1]": {"tested_on": "human dendritic cells cultured with human allogenic T cells", "experiment": "Effect on the ability of human dendritic cells to induce the growth of allogenic T cells ([3H]-thymidine incorporation)", "settings": "Homo sapiens; dendritic cells treated 3 days with test compound and TNF-α, then 5 days with allogenic T cells; read-out: IC50 (inhibition of DNA synthesis of lymphocytes)", "method_in_brief": "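Immature human dendritic cells matured 3 days with compound plus TNF-α, then co-cultured with allogeneic T cells (2.5×10^3 DC : 2.0×10^5 T per well) for 5 days at 37 °C, 5% CO2. [3H]-thymidine added for the final 16 h; incorporation counted, inhibition versus compound-free cultures, IC50 derived.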"}, "mouse splenic cells": {"tested_on": "mouse splenic cells", "experiment": "Inhibitory action on blastogenesis of mouse splenic cells ([3H]-thymidine incorporation)", "settings": "Mus musculus, Lymphocyte, 72 hours", "method": "Inhibitory Action on Blastogenesis of Mouse Splenic Cells\nThe spleen was excised from each of BALB/c mice (Charles River Japan; female; 10-week-old), and it was allowed to pass through a mesh to obtain a single cell suspension. This single cell suspension was prepared to be 1.0×10^6 cells/ml. Thereafter, 200 μl of the suspension was fractionated into each well of a 96-well plate. Thereafter, as blastogenic stimulation, 5 μg/ml concanavalin A (Pharmacia) or 25 μg/ml Escherichia coli-derived lipopolysaccharide (DIFCO) was added to the well, and then, a solution containing a test compound with each different concentration was further added thereto at an amount of 20 μl/well. The obtained mixture was cultured at 37° C. for 72 hours in an incubator containing 5% carbon dioxide. Thereafter, a 1 μCi/10 μl/well [^3H]-thymidine solution was added thereto 64 hours after initiation of the culture. After completion of the culture (72 hours later), the cells were captured on a filter using a cell harvester, and they were then dried. Thereafter, scintillator was added thereto, and the radioactivity of [^3H]-thymidine incorporated into the cells was then measured using a liquid scintillation counter. The inhibition rate of the DNA synthesis was calculated using the aforementioned formula (3). Thereafter, the concentration of a test compound necessary for inhibition of 50% (IC50 value) was obtained."}, "CD83": {"tested_on": "CD83", "experiment": "Expression of antigen-presenting and costimulatory molecules of human peripheral blood-derived dendritic cells: CD83", "method": "Action on Expression of Antigen-Presenting Molecules and Costimulatory Molecules of Human Peripheral Blood-Derived Dendritic Cells\nThe dendritic cells obtained by the same method as in Test Example 2 were suspended in RPMI 1640 comprising 10% FCS containing 500 U/ml GM-CSF, 50 ng/ml IL-4, and 100 U/ml human recombinant tumor necrosis factor (2.5×10^6 cells/ml). Thereafter, the suspension was inoculated into a 6-well plate at an amount of 2.0 ml/well, and the test compound was then added thereto. The mixture was cultured at 37° C. for 3 days in an incubator containing 5% carbon dioxide. Thereafter, the suspended cells were recovered. The cells were then stained with fluoroisothiocyanate-labeled mouse monoclonal antibodies reacting with MHC class I (Bechman Coulter), CD1a (Immunotech), CD40 (Pharmingen), CD80 (Pharmingen), and CD83 (Immunotech). Thereafter, mean fluorescence intensity and the ratio of positive cells were measured by flow cytometry. The expression level was calculated by the formula “the mean fluorescence intensity x the ratio of positive cells,” and the inhibition rate of the surface antigen expression level of dendritic cells was then obtained by the following formula (8).\n[formula] • Eexp: Expression level of surface antigens of dendritic cells cultured in the presence of test compound • Cexp: Expression level of surface antigens of dendritic cells cultured in the absence of test compound"}, "MHC class II": {"tested_on": "MHC class II", "experiment": "Expression of antigen-presenting and costimulatory molecules of human peripheral blood-derived dendritic cells: MHC class II"}}, "note": "pIC50: −log10 of the molar value. Where two headings read alike, the source gives them in different places.", "data": [{"compound": "CC(C)NC(=O)Nc1nc2nccc(-c3cccs3)n2n1", "note": "[Example 029, 1-isopropyl-3-(7-thiophen-2-yl[1,2,4]triazolo[1,5-a]pyrimidin-2-yl)urea]", "values": [{"measurement": "pIC50", "setting": "[1]", "value": 5.46}, {"measurement": "IC50", "setting": "mouse splenic cells; 5 μg/ml concanavalin A, read-out: Lymphocyte blastogenesis IC50 (μM), ConA stimulation", "value": 0.71, "unit": "µM"}, {"measurement": "IC50", "setting": "mouse splenic cells; 25 μg/ml Escherichia coli-derived lipopolysaccharide, read-out: Lymphocyte blastogenesis IC50 (μM), LPS stimulation", "value": 0.3, "unit": "µM"}, {"measurement": "Expression inhibition rate by test compound (%), CD83", "setting": "CD83; Analyte 1, 3 days", "value": 62.6, "unit": "%"}, {"measurement": "Expression inhibition rate by test compound (%), CD83", "setting": "CD83; Analyte 2, 3 days", "value": 88.6, "unit": "%"}, {"measurement": "Expression inhibition rate by test compound (%), CD83", "setting": "CD83; Analyte 3, 3 days", "value": 42.7, "unit": "%"}, {"measurement": "Expression inhibition rate by test compound (%), MHC class II", "setting": "MHC class II; Analyte 1, 3 days", "value": 65.6, "unit": "%"}, {"measurement": "Expression inhibition rate by test compound (%), MHC class II", "setting": "MHC class II; Analyte 2, 3 days", "value": 93.3, "unit": "%"}, {"measurement": "Expression inhibition rate by test compound (%), MHC class II", "setting": "MHC class II; Analyte 3, 3 days", "value": 50.2, "unit": "%"}]}]}
